The values that follow come from article PMC3348258 (Nature, 2012).

Each structure is given as a SMILES string. Where “and” joins values, the source holds several entries; their conditions need not be identical. Identical values can stand only once.

Assay [1] has as its system BK α subunits coexpressed with construct D20A. In words: Effect of pore blockers on β3a-mediated tail currents. The note with it: 10 μM Ca^2+; TBA 2 or 10 mM; bbTBA 200 and 400 μM. Type of assay: cell-based, mSlo1 (mouse) with human β3a N-terminus on human β2.
The target in the next assay is open BK channels. The note with it: read-out: blocking affinity / Kd(0) for block of open BK channels; cited from earlier work.
The test system of another assay is Shaker K^+ channels. The note with it: cited from earlier work.

Turning to `CCCC[N+](CCCC)(CCCC)CCCC` [TBA, tetrabutylammonium], the “effect on β3a-mediated tail currents” value in assay [1] was “both peak tail current and tail current time constant were reduced”. In addition, on open BK channels, the Kd is 900 µM and ~900 µM. For `CC[N+](CC)(CC)CC` [TEA, tetraethylammonium], the “effect on inactivation onset” value with Shaker K^+ channels is recorded as “slow inactivation onset”.
